Earlier results on one compound are cited in patent US8603996B2, “Modular aptamer-regulated ribozymes” (California Institute of Technology, priority 2006, dated 2013).

This data set concerns theophylline aptamer.

As to `O=c1[nH]c(=O)c2[nH]cnc2[nH]1` [xanthine], the “binding affinity lower than theophylline” value was 27 fold.
